Our source for the relative viability values is the supplement of paper PMC10307832.

Common to all, as to assay: relative viability (nuclei count vs DMSO), 5 days (fraction); higher = more cells survive
Compound in assay [1]: C1=CC(=CC=C1NC(=S)NNC2=C(C=C(C=C2[N+](=O)[O-])C(F)(F)F)[N+](=O)[O-])F [Kobe2602]
In outline: (§1)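 Lung cancer cell lines in 1536-well plates were kept overnight at 37 °C, then pinned with five library-drug doses (not always all listed) spaced by √10 on vehicle-anchored plates. After 5 days without medium change, cells were fixed, permeabilised and Hoechst-stained in one step, imaged at 4×, and nuclei were counted with MetaXpress. Viability is treated-well nuclei divided by vehicle-well nuclei, taken as the median over plates. Plates passed only with control CV below 25% and at least one doubling.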

Compound in assay [2]: COc1cc2nccc(Oc3ccc(NC(=O)C4(C(=O)Nc5ccc(F)cc5)CC4)cc3)c2cc1OC [Cabozantinib]
A digest of the protocol:
as §1

Compound in assay [3]: O[C@@H](COc1cccc2ncccc12)CN1CCN([C@@H]2c3ccccc3[C@@H]3[C@H](c4ccccc42)C3(F)F)CC1 [Zosuquidar]
In outline:
as §1

Compound in assay [4]: COc1cc2nccc(Oc3ccc(NC(=O)C4(C(=O)Nc5ccc(F)cc5)CC4)cc3)c2cc1OC [Cabozantinib] + Cc1nc(Nc2ncc(C(=O)Nc3c(C)cccc3Cl)s2)cc(N2CCN(CCO)CC2)n1 [Dasatinib] (partner 0.075 µM)
A digest of the protocol:
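Values are medians from duplicate plates. Each reflects relative viability, defined as the nuclei count of treated wells over that of vehicle wells. Lung cancer cell lines in 1536-well plates were pin-tool dosed one day after seeding with one drug alone or with a fixed anchor-drug dose plus five library-drug doses (not always all listed) in √10 steps, then fixed, stained and imaged at 4× after 5 days.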

Take NCI-H1755: the relative viability came to 0.962 in assay [1] (0.2 µM); 0.971 in assay [1] (0.6325 µM); 0.993 in assay [1] (2 µM); 0.985 in assay [1] (6.325 µM); 0.994 in assay [1] (20 µM); 0.994 in assay [2] (0.02 µM). Moreover, the relative viability in assay [2] (0.06325 µM) came out at 1.04; in assay [2] (0.2 µM), 0.977; in assay [2] (0.6325 µM), 0.923; in assay [2] (2 µM), 0.857; in assay [3] (0.01 µM), 0.995; in assay [3] (0.03162 µM) it was 1.01. Moreover, the relative viability turned out to be 0.94 in assay [3] (0.1 µM); 1.05 in assay [3] (0.3162 µM); 1.01 in assay [3] (1 µM); 0.299 in assay [4] (first compound 0.02 µM); 0.479 in assay [4] (first compound 0.06325 µM); 0.396 in assay [4] (first compound 0.2 µM). Further, the results for the relative viability in assay [4] (first compound 0.6325 µM) and in assay [4] (first compound 2 µM) were 0.313 and 0.239, respectively.

For NCI-H1792, the relative viability in assay [1] (0.2 µM) was 0.99; in assay [1] (0.6325 µM), 1.02; in assay [1] (2 µM), 0.848; in assay [1] (6.325 µM), 0.978; in assay [1] (20 µM) it was 1.07; in assay [2] (0.06325 µM), 1.21. Further, the relative viability in assay [2] (0.2 µM) amounted to 0.915; in assay [2] (0.6325 µM), 0.894; in assay [2] (2 µM), 0.898; in assay [3] (0.01 µM), 0.833; in assay [3] (0.03162 µM) it was 0.94; in assay [3] (0.1 µM) it was 0.729. The relative viability in assay [3] (0.3162 µM) was 0.954; in assay [3] (1 µM), 0.834; in assay [4] (first compound 0.06325 µM) it was 0.878; in assay [4] (first compound 0.2 µM), 0.77; in assay [4] (first compound 0.6325 µM) it was 0.727; in assay [4] (first compound 2 µM), 0.644.

For the cell line NCI-H1793, the relative viability in assay [1] (0.2 µM) was 0.862; in assay [1] (0.6325 µM), 0.889; in assay [1] (2 µM) it was 0.853; in assay [1] (6.325 µM) it was 0.86; in assay [1] (20 µM), 1.04; in assay [2] (0.02 µM), 0.846. In addition, the relative viability in assay [2] (0.06325 µM) worked out at 0.992; in assay [2] (0.2 µM), 0.59; in assay [2] (0.6325 µM) it was 0.832; in assay [2] (2 µM) it was 0.776; in assay [3] (0.01 µM), 0.902; in assay [3] (0.03162 µM), 0.754. Further, the relative viability in assay [3] (0.3162 µM) came to 1.15; in assay [3] (1 µM) it was 0.892; in assay [4] (first compound 0.02 µM), 0.436; in assay [4] (first compound 0.06325 µM), 0.519; in assay [4] (first compound 0.2 µM), 0.343; in assay [4] (first compound 0.6325 µM), 0.336. The relative viability in assay [4] (first compound 2 µM) amounted to 0.378.

For the cell line NCI-H1915, the relative viability was 0.998 in assay [1] (0.2 µM); 1.08 in assay [1] (0.6325 µM); 0.987 in assay [1] (2 µM); 0.985 in assay [1] (6.325 µM); 1 in assay [1] (20 µM); 0.994 in assay [2] (0.02 µM). Besides, the relative viability was 1.03 in assay [2] (0.06325 µM); 1.02 in assay [2] (0.2 µM); 0.996 in assay [2] (0.6325 µM); 0.994 in assay [2] (2 µM); 0.986 in assay [3] (0.01 µM); 1.04 in assay [3] (0.03162 µM). Besides, the relative viability is 0.926 in assay [3] (0.1 µM); 1.04 in assay [3] (0.3162 µM); 1.01 in assay [3] (1 µM); 0.32 in assay [4] (first compound 0.02 µM); 0.316 in assay [4] (first compound 0.06325 µM); 0.294 in assay [4] (first compound 0.2 µM). The values for the relative viability in assay [4] (first compound 0.6325 µM) and in assay [4] (first compound 2 µM) were 0.352 and 0.322, respectively.

Turning to NCI-H1944, the relative viability turned out to be 1 in assay [1] (0.2 µM); 1.07 in assay [1] (0.6325 µM); 0.899 in assay [1] (2 µM); 0.992 in assay [1] (6.325 µM); 0.987 in assay [1] (20 µM); 0.826 in assay [2] (0.02 µM). Moreover, the relative viability in assay [2] (0.06325 µM) came to 1.01; in assay [2] (0.2 µM) it was 0.961; in assay [2] (0.6325 µM) it was 1.01; in assay [2] (2 µM), 0.916; in assay [3] (0.01 µM), 0.942; in assay [3] (0.03162 µM), 0.88. The relative viability is 0.847 in assay [3] (0.1 µM); 1.08 in assay [3] (0.3162 µM); 0.909 in assay [3] (1 µM); 0.183 in assay [4] (first compound 0.02 µM); 0.233 in assay [4] (first compound 0.06325 µM); 0.206 in assay [4] (first compound 0.2 µM). The relative viability in assay [4] (first compound 0.6325 µM) was 0.221; in assay [4] (first compound 2 µM), 0.216.

Consider NCI-H1975, for which the relative viability is 0.995 in assay [1] (0.2 µM); 0.978 in assay [1] (0.6325 µM); 0.852 in assay [1] (2 µM); 0.836 in assay [1] (6.325 µM); 0.905 in assay [1] (20 µM); 1.03 in assay [2] (0.02 µM). Further, the relative viability in assay [2] (0.06325 µM) turned out to be 1.1; in assay [2] (0.2 µM) it was 0.961; in assay [2] (0.6325 µM), 0.873; in assay [2] (2 µM), 0.855; in assay [3] (0.01 µM), 0.934; in assay [3] (0.03162 µM), 0.824. Also, the relative viability in assay [3] (0.1 µM) was determined as 0.937; in assay [3] (0.3162 µM), 1.06; in assay [3] (1 µM), 0.959; in assay [4] (first compound 0.02 µM) it was 0.285; in assay [4] (first compound 0.06325 µM) it was 0.365; in assay [4] (first compound 0.2 µM), 0.344. Further, the relative viability in assay [4] (first compound 0.6325 µM) is 0.36; in assay [4] (first compound 2 µM) it was 0.326.

For NCI-H1993, the relative viability in assay [1] (0.2 µM) turned out to be 0.877; in assay [1] (0.6325 µM), 0.993; in assay [1] (2 µM), 0.876; in assay [1] (6.325 µM), 0.792; in assay [1] (20 µM) it was 0.87; in assay [2] (0.02 µM), 0.681. Moreover, the relative viability was 0.787 in assay [2] (0.06325 µM); 0.584 in assay [2] (0.2 µM); 0.734 in assay [2] (0.6325 µM); 0.788 in assay [2] (2 µM); 0.925 in assay [3] (0.01 µM); 0.879 in assay [3] (0.03162 µM). Also, the relative viability in assay [3] (0.1 µM) was 0.685; in assay [3] (0.3162 µM), 1.06; in assay [3] (1 µM), 0.826; in assay [4] (first compound 0.02 µM) it was 0.513; in assay [4] (first compound 0.06325 µM), 0.488; in assay [4] (first compound 0.2 µM) it was 0.49. The relative viability in assay [4] (first compound 0.6325 µM) is 0.498; in assay [4] (first compound 2 µM), 0.523.
